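Step 1: Grow cells in 96-well plates. Step 2: Expose to compound for 48 hours at 5 concentrations. Step 3: Interpolate endpoints linearly; if unreached, use highest concentration. At the GI50, growth is halved. The concentration for full growth arrest is given as TGI.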
Columns and labels:
Assay in all cases: DTP human tumour cell line panel, 48 h
[1] = tested on: NCI/ADR-RES ovarian
[2] = tested on: CAKI-1 renal
[3] = tested on: SR leukemia
[4] = tested on: HCT-116 colon
[5] = tested on: OVCAR-3 ovarian
[6] = tested on: NCI-H522 lung
[7] = tested on: DU-145 prostate
[8] = tested on: MALME-3M melanoma

Row | Structure (SMILES) | TGI [1] | TGI [2] | TGI [3] | TGI [4] | TGI [5] | TGI [6] | TGI [7] | TGI [8] | GI50 [1] | GI50 [2] | GI50 [3] | GI50 [4] | GI50 [5] | GI50 [6] | GI50 [7] | GI50 [8]
1 | O=C(O)c1ccccc1Sc1ccc(C=C2NC(=S)N(c3ccccc3)C2=O)s1 | > 100 µM | > 100 µM | > 100 µM | > 100 µM | > 100 µM | 38.9 µM | > 100 µM | > 100 µM | – | – | – | – | – | – | – | –
2 | O=[N+]([O-])C(/C=C(\Cl)[N+](=O)[O-])=C(N1CCOCC1)N1CCOCC1 | > 100 µM | 61 µM | > 100 µM | 62 µM | 34.4 µM | > 100 µM | > 100 µM | 70.3 µM | – | – | – | – | – | – | – | –
3 | CC(NC(CC12CC3CC(CC(C3)C1)C2)C(N)=O)c1ccccc1 (stereo not given) | 48 µM | 61.2 µM | 41.3 µM | 42.2 µM | 26.6 µM | 47.5 µM | > 100 µM | 34.3 µM | – | – | – | – | – | – | – | –
4 | c1ccc(-c2cc(-c3ccccc3)nc(-c3ccncc3)c2)cc1 | > 100 µM | > 100 µM | > 100 µM | > 100 µM | > 100 µM | > 100 µM | > 100 µM | > 100 µM | – | – | – | – | – | – | – | –
5 | CCc1nnc2sc(-c3ccc(-c4ccccc4[N+](=O)[O-])o3)nn12 | 75.1 µM | > 100 µM | 72.6 µM | > 100 µM | > 100 µM | > 100 µM | > 100 µM | > 100 µM | – | – | – | – | – | – | – | –
6 | O=C(c1ccccc1)c1nn(-c2cccc(Cl)c2)c2nc3nc(-c4ccccc4)cc(=O)n3nc12 | > 25 µM | > 25 µM | > 25 µM | > 25 µM | > 25 µM | > 25 µM | > 25 µM | > 25 µM | > 25 µM | > 25 µM | > 25 µM | > 25 µM | > 25 µM | > 25 µM | > 25 µM | > 25 µM
7 | COc1ccc(/C=N/n2c(-c3ccccc3)n[nH]c2=O)c(OC)c1 | > 73.9 µM | > 100 µM | > 100 µM | > 100 µM | > 100 µM | > 74.3 µM | > 100 µM | > 100 µM | – | – | – | – | – | – | – | –
8 | C/C(=C\COP(=O)(O)OP(=O)(O)O)CC/C=C(\C)CNc1c(F)c(F)c(F)c(F)c1F | > 100 µM | > 100 µM | 0.308 µM | > 100 µM | > 100 µM | > 100 µM | > 100 µM | > 100 µM | – | – | – | – | – | – | – | –
9 | Cc1csc(NCc2ccc(Cl)cc2)n1 | > 100 µM | > 100 µM | > 100 µM | > 100 µM | > 100 µM | > 100 µM | > 100 µM | > 100 µM | – | – | – | – | – | – | – | –
10 | CCCCCCCC(=O)NC(C)(C)C(=O)NCC(=O)NC(CC(C)C)C(=O)NC(C)(C)C(=O)NCC(=O)NCC(=O)NC(CC(C)C)C(=O)NC(C)(C)C(=O)NCC(=O)NC(C(=O)NC(CO)CC(C)C)C(C)CC (stereo not given) | 9.12 µM | 8.07 µM | 8.63 µM | 7.09 µM | 6.36 µM | 7.26 µM | 9.53 µM | 8.93 µM | – | – | – | – | – | – | – | –
11 | C(/C=C(\Nc1ccccc1)c1ccc2ccccc2c1)=Nc1ccccc1 | 3.93 µM | 7.22 µM | 2.49 µM | 10 µM | 4.08 µM | 19 µM | 6.29 µM | 15 µM | – | – | – | – | – | – | – | –
12 | Cc1ccc(NC(c2ccccc2)P(=O)(c2ccccc2)c2ccccc2)cc1 (stereo not given) | > 100 µM | > 100 µM | > 100 µM | > 100 µM | > 100 µM | > 100 µM | > 100 µM | > 100 µM | – | – | – | – | – | – | – | –
13 | O=C(OC1C#CCSCC#C/C=C\1)c1ccc2c(c1)C(=O)c1ccccc1C2=O (stereo not given) | > 100 µM | > 100 µM | > 100 µM | > 100 µM | > 100 µM | 62.7 µM | > 100 µM | > 100 µM | – | – | – | – | – | – | – | –
14 | C[N+]1(CC[N+]2(C)CCCC2c2cccnc2)CCCC1c1cccnc1 (stereo not given) | > 100 µM | > 100 µM | > 100 µM | > 100 µM | > 100 µM | > 100 µM | > 100 µM | > 100 µM | – | – | – | – | – | – | – | –
15 | Clc1ccc(Cc2nc3cc4ccccc4cc3[nH]2)cc1Cl | 96.4 µM | 43.5 µM | 30.8 µM | > 100 µM | 61 µM | 29 µM | 45.7 µM | 39.4 µM | – | – | – | – | – | – | – | –
16 | N#CCCN(C(=O)Nc1ccc(NC(=O)N(CCC#N)c2ccccc2)cc1)c1ccccc1 | > 100 µM | > 100 µM | > 100 µM | > 100 µM | > 100 µM | > 100 µM | > 100 µM | > 100 µM | – | – | – | – | – | – | – | –
17 | CCC(CCCC[C@H]1CC[C@@H]2CC(=O)C[C@H]12)OC (stereo not given in full) | > 100 µM | > 100 µM | > 100 µM | > 100 µM | > 100 µM | > 100 µM | > 100 µM | > 100 µM | – | – | – | – | – | – | – | –
18 | Cc1n[nH]c(=O)c2c3c([nH]c12)-c1ccccc1C3 | > 100 µM | > 100 µM | > 100 µM | > 100 µM | > 100 µM | > 100 µM | > 100 µM | > 100 µM | – | – | – | – | – | – | – | –
19 | C1CCC(CC2CCC(NC3=NCCO3)CC2)CC1 (stereo not given) | 37.3 µM | 50.7 µM | 52.6 µM | 30.6 µM | 30.6 µM | 41.9 µM | 94.9 µM | 29.7 µM | – | – | – | – | – | – | – | –

— PubChem BioAssay (NCI)
